Measured values from the kinase profiling compilation of Christmann-Franck et al. (2016).
One block for each molecule: values may come before it.

Columns and labels:
Assay in all cases: radiometric filter-binding kinase assay
CHEK2 (human) = CHEK2 (human) (UniProt O96017)
CLK2 (human) = CLK2 (human) (UniProt P49760)
DAPK1 (human) = DAPK1 (human) (UniProt P53355)
DYRK2 (human) = DYRK2 (human) (UniProt Q92630)
DYRK3 (human) = DYRK3 (human) (UniProt O43781)
EPHA2 (human) = EPHA2 (human) (UniProt P29317)
EPHB1 (human) = EPHB1 (human) (UniProt P54762)
EPHB2 (human) = EPHB2 (human) (UniProt P29323)
EPHB4 (human) = EPHB4 (human) (UniProt P54760)
FLT1 (human) = FLT1 (human) (UniProt P17948)
GCK (human) = GCK (human) (UniProt Q12851)
HIPK2 (human) = HIPK2 (human) (UniProt Q9H2X6)
Chain of HIPK2 (human) (Q9H2X6 whole entry, looked up): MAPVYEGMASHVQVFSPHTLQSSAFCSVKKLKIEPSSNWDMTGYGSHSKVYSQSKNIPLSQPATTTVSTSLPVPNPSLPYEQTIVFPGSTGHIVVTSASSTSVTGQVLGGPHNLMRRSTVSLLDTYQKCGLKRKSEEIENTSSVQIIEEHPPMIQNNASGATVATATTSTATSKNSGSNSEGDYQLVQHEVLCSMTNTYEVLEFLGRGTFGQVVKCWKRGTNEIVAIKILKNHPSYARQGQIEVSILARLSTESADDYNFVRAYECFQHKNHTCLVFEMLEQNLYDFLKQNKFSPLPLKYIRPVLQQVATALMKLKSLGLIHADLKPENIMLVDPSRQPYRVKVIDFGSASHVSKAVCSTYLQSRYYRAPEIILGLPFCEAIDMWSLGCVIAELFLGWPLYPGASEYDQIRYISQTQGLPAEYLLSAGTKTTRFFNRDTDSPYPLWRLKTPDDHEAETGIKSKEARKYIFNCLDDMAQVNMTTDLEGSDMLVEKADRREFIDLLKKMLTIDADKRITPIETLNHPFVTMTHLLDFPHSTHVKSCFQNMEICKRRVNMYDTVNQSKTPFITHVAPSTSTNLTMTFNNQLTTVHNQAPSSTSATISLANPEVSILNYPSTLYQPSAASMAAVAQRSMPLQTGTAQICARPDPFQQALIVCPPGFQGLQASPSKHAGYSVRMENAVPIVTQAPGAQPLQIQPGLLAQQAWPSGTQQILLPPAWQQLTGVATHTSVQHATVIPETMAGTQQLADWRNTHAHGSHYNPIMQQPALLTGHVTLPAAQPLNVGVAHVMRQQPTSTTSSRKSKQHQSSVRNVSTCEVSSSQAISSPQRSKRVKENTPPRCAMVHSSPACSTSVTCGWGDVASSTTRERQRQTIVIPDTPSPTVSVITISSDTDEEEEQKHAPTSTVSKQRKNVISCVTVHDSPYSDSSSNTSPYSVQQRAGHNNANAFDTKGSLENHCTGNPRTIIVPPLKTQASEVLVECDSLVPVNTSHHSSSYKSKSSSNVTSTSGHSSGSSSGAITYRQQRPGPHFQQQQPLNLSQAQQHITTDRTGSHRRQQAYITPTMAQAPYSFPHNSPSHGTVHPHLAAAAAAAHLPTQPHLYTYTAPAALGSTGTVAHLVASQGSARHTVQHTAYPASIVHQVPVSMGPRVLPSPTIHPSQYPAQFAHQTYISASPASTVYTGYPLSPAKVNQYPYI

IKBKE (human) = IKBKE (human) (UniProt Q14164)
IRAK4 (human) = IRAK4 (human) (UniProt Q9NWZ3)
Chain of IRAK4 (human) (Q9NWZ3 whole entry, looked up): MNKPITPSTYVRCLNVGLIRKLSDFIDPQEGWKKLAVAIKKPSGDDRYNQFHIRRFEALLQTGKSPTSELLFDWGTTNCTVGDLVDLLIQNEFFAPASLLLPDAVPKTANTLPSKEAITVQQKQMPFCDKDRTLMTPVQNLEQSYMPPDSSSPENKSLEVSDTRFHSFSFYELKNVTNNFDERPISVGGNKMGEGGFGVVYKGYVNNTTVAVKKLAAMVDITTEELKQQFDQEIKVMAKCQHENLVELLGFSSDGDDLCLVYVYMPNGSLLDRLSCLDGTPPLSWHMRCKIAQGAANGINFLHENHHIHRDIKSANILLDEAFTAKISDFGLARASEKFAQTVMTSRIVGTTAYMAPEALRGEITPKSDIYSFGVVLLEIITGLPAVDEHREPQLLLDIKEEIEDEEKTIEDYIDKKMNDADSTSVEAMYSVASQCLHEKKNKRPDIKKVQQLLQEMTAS

MAP3K7 TAB1 (human) = MAP3K7 TAB1 (human) (UniProt Q15750+O43318)
MAPK12 (human) = MAPK12 (human) (UniProt P53778)
MAPK14 (human) = MAPK14 (human) (UniProt Q16539)
Chain of MAPK14 (human) (Q16539 whole entry, looked up): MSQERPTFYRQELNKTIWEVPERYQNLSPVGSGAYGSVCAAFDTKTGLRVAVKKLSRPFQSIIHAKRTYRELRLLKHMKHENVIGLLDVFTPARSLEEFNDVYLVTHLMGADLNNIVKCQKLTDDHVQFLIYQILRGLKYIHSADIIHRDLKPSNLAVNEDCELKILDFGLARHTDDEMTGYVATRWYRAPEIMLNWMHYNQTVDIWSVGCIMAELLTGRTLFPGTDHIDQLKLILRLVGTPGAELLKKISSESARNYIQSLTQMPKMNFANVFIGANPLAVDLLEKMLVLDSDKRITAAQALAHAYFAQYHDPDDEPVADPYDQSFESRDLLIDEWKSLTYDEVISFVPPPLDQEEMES

MAPKAPK2 (human) = MAPKAPK2 (human) (UniProt P49137)
Chain of MAPKAPK2 (human) (P49137 whole entry, looked up): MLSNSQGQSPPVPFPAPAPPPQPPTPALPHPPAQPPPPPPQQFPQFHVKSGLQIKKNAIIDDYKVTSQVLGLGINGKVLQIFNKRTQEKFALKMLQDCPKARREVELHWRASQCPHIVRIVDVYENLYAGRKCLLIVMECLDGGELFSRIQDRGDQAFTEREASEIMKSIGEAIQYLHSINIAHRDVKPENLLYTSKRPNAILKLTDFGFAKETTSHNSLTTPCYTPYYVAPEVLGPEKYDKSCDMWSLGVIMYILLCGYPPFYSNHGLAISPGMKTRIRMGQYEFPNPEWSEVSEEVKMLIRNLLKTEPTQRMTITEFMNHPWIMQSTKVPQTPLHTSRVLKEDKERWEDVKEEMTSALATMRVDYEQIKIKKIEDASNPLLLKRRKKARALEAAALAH

MARK1 (human) = MARK1 (human) (UniProt Q9P0L2)
MARK2 (human) = MARK2 (human) (UniProt Q7KZI7)
Chain of MARK2 (human) (Q7KZI7 whole entry, looked up): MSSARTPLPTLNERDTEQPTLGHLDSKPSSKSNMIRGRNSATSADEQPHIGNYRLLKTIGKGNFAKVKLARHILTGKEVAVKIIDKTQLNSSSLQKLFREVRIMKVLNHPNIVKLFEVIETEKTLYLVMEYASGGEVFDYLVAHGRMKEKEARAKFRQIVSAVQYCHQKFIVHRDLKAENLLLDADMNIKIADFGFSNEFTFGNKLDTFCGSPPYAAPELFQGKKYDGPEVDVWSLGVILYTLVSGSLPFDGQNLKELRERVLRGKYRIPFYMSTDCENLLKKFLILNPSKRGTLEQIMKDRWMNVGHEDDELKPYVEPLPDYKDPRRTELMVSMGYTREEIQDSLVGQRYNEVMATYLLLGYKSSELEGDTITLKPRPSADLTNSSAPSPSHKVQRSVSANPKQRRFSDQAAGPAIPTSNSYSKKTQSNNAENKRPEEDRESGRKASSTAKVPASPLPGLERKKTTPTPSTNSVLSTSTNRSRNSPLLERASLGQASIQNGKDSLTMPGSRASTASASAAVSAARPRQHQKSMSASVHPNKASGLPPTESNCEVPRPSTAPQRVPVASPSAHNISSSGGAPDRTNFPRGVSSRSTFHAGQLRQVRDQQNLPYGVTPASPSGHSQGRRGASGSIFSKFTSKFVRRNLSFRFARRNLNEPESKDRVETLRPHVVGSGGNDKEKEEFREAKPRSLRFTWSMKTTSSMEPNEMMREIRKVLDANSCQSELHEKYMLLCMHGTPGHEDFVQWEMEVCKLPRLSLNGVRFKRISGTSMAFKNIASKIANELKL

MELK (human) = MELK (human) (UniProt Q14680)
MYLK (human) = MYLK (human) (UniProt Q15746)
NEK2 (human) = NEK2 (human) (UniProt P51955)
PIM1 (human) = PIM1 (human) (UniProt P11309)
PIM3 (human) = PIM3 (human) (UniProt Q86V86)
PKN2 (human) = PKN2 (human) (UniProt Q16513)
PRKCA (human) = PRKCA (human) (UniProt P17252)
ROCK2 (rat) = details: accession and sequence are those of the human protein
RPS6KA1 KD1 KD2 (human) = RPS6KA1 KD1 KD2 (human) (UniProt Q15418)
[1] = system: RPS6KB1 (human), P23443 [T412E]
Chain of RPS6KB1 (human), P23443 [T412E] (P23443 whole entry T412E, looked up): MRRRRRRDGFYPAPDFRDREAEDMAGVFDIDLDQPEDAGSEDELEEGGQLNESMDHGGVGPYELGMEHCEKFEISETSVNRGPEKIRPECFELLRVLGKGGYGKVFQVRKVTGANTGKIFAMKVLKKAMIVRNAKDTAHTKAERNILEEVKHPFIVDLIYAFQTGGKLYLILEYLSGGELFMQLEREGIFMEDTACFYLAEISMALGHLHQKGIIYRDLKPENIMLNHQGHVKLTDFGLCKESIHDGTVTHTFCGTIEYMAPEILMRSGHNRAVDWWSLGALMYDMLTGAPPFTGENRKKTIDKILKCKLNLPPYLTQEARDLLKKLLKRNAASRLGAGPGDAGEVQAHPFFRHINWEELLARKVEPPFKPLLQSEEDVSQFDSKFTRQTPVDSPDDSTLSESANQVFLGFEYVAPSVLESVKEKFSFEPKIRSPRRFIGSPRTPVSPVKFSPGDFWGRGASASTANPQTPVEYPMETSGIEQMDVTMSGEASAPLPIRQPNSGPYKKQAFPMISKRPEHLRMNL

[2] = system: SGK1 (human), O00141 [S422D]
STK3 (human) = STK3 (human) (UniProt Q13188)
TAOK1 (human) = TAOK1 (human) (UniProt Q7L7X3)
TTK (human) = TTK (human) (UniProt P33981)

Chain of DYRK3 (human) (O43781 whole entry, looked up): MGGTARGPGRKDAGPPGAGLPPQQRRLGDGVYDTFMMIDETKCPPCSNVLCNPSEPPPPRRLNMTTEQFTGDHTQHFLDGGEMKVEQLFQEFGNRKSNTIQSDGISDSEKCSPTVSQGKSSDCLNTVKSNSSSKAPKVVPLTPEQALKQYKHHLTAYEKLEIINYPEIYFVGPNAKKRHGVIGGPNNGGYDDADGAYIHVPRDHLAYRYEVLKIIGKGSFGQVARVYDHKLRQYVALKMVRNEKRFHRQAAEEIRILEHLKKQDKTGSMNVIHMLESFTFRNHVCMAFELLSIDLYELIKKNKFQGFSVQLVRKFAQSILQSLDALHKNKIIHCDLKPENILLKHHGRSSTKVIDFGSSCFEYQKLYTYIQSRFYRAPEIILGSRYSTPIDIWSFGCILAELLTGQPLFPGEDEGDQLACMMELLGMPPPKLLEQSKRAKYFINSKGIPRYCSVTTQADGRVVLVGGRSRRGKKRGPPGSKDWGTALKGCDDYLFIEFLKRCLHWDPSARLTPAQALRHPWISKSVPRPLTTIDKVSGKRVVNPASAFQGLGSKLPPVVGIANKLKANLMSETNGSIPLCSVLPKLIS

- residual activity (CHEK2 (human); compound 0.1 µM): 130%
- residual activity (CHEK2 (human); compound 1.0 µM): 116%
- residual activity (CHEK2 (human); compound 10.0 µM): 61%
- residual activity (CLK2 (human); compound 0.1 µM): 88%
- residual activity (CLK2 (human); compound 1.0 µM): 102%
- residual activity (CLK2 (human); compound 10.0 µM): 94%
- residual activity (DAPK1 (human); compound 0.1 µM): 108%
- residual activity (DAPK1 (human); compound 1.0 µM): 95%
- residual activity (DAPK1 (human); compound 10.0 µM): 108%
- residual activity (DYRK2 (human); compound 0.1 µM): 97%
- residual activity (DYRK2 (human); compound 1.0 µM): 88%
- residual activity (DYRK2 (human); compound 10.0 µM): 104%
- residual activity (DYRK3 (human); compound 0.1 µM): 103%
- residual activity (DYRK3 (human); compound 1.0 µM): 101%
- residual activity (DYRK3 (human); compound 10.0 µM): 78%
- residual activity (EPHA2 (human); compound 0.1 µM): 94%
- residual activity (EPHA2 (human); compound 1.0 µM): 93%
- residual activity (EPHA2 (human); compound 10.0 µM): 96%
- residual activity (EPHB1 (human); compound 0.1 µM): 105%
- residual activity (EPHB1 (human); compound 1.0 µM): 101%
- residual activity (EPHB1 (human); compound 10.0 µM): 107%
- residual activity (EPHB2 (human); compound 0.1 µM): 116%
- residual activity (EPHB2 (human); compound 1.0 µM): 102%
- residual activity (EPHB2 (human); compound 10.0 µM): 105%
- residual activity (EPHB4 (human); compound 0.1 µM): 120%
- residual activity (EPHB4 (human); compound 1.0 µM): 119%
- residual activity (EPHB4 (human); compound 10.0 µM): 105%
- residual activity (FLT1 (human); compound 0.1 µM): 120%
- residual activity (FLT1 (human); compound 10.0 µM): 30%
- residual activity (GCK (human); compound 0.1 µM): 98%
- residual activity (GCK (human); compound 1.0 µM): 106%
- residual activity (GCK (human); compound 10.0 µM): 68%
- residual activity (HIPK2 (human); compound 0.1 µM): 108%
- residual activity (HIPK2 (human); compound 1.0 µM): 113%
- residual activity (HIPK2 (human); compound 10.0 µM): 60%
- residual activity (IKBKE (human); compound 0.1 µM): 96%
- residual activity (IKBKE (human); compound 1.0 µM): 97%
- residual activity (IKBKE (human); compound 10.0 µM): 61%
- residual activity (IRAK4 (human); compound 1.0 µM): 101%
- residual activity (IRAK4 (human); compound 10.0 µM): 79%
- residual activity (MAP3K7 TAB1 (human); compound 0.1 µM): 114%
- residual activity (MAP3K7 TAB1 (human); compound 1.0 µM): 104%
- residual activity (MAP3K7 TAB1 (human); compound 10.0 µM): 109%
- residual activity (MAPK12 (human); compound 0.1 µM): 114%
- residual activity (MAPK12 (human); compound 1.0 µM): 116%
- residual activity (MAPK12 (human); compound 10.0 µM): 103%
- residual activity (MAPK14 (human); compound 0.1 µM): 101%
- residual activity (MAPK14 (human); compound 1.0 µM): 92%
- residual activity (MAPK14 (human); compound 10.0 µM): 95%
- residual activity (MAPKAPK2 (human); compound 1.0 µM): 56%
- residual activity (MARK1 (human); compound 0.1 µM): 106%
- residual activity (MARK1 (human); compound 1.0 µM): 115%
- residual activity (MARK1 (human); compound 10.0 µM): 111%
- residual activity (MARK2 (human); compound 0.1 µM): 109%
- residual activity (MARK2 (human); compound 1.0 µM): 111%
- residual activity (MARK2 (human); compound 10.0 µM): 118%
- residual activity (MELK (human); compound 0.1 µM): 98%
- residual activity (MELK (human); compound 1.0 µM): 107%
- residual activity (MELK (human); compound 10.0 µM): 123%
- residual activity (MYLK (human); compound 0.1 µM): 113%
- residual activity (MYLK (human); compound 1.0 µM): 114%
- residual activity (MYLK (human); compound 10.0 µM): 114%
- residual activity (NEK2 (human); compound 0.1 µM): 93%
- residual activity (NEK2 (human); compound 1.0 µM): 94%
- residual activity (NEK2 (human); compound 10.0 µM): 82%
- residual activity (PIM1 (human); compound 0.1 µM): 109%
- residual activity (PIM1 (human); compound 1.0 µM): 103%
- residual activity (PIM1 (human); compound 10.0 µM): 94%
- residual activity (PIM3 (human); compound 0.1 µM): 95%
- residual activity (PIM3 (human); compound 1.0 µM): 110%
- residual activity (PIM3 (human); compound 10.0 µM): 83%
- residual activity (PKN2 (human); compound 0.1 µM): 103%
- residual activity (PKN2 (human); compound 1.0 µM): 95%
- residual activity (PKN2 (human); compound 10.0 µM): 104%
- residual activity (PRKCA (human); compound 0.1 µM): 96%
- residual activity (PRKCA (human); compound 1.0 µM): 111%
- residual activity (PRKCA (human); compound 10.0 µM): 96%
- residual activity (ROCK2 (rat); compound 0.1 µM): 103%
- residual activity (ROCK2 (rat); compound 1.0 µM): 107%
- residual activity (ROCK2 (rat); compound 10.0 µM): 112%
- residual activity (RPS6KA1 KD1 KD2 (human); compound 0.1 µM): 109%
- residual activity (RPS6KA1 KD1 KD2 (human); compound 1.0 µM): 101%
- residual activity (RPS6KA1 KD1 KD2 (human); compound 10.0 µM): 105%
- residual activity ([1]; compound 0.1 µM): 99%
- residual activity ([1]; compound 1.0 µM): 97%
- residual activity ([1]; compound 10.0 µM): 69%
- residual activity ([2]; compound 0.1 µM): 110%
- residual activity ([2]; compound 10.0 µM): 103%
- residual activity (STK3 (human); compound 0.1 µM): 123%
- residual activity (STK3 (human); compound 1.0 µM): 126%
- residual activity (STK3 (human); compound 10.0 µM): 129%
- residual activity (TAOK1 (human); compound 0.1 µM): 103%
- residual activity (TAOK1 (human); compound 1.0 µM): 113%
- residual activity (TAOK1 (human); compound 10.0 µM): 120%
- residual activity (TTK (human); compound 0.1 µM): 111%
- residual activity (TTK (human); compound 1.0 µM): 112%
- residual activity (TTK (human); compound 10.0 µM): 94%
Structure (SMILES): CC1=C(CO)C(=O)O[C@@H]([C@@H](C)[C@H]2CC[C@H]3[C@@H]4C[C@H]5O[C@]56[C@@H](O)C=CC(=O)[C@]6(C)C4CC[C@]23C)C1 (stereo not given in full)

- residual activity (CHEK2 (human); compound 1.0 µM): 102%
- residual activity (CHEK2 (human); compound 5.0 µM): 121%
- residual activity (CLK2 (human); compound 1.0 µM): 90%
- residual activity (CLK2 (human); compound 5.0 µM): 93%
- residual activity (DAPK1 (human); compound 1.0 µM): 102%
- residual activity (DAPK1 (human); compound 5.0 µM): 107%
- residual activity (DYRK2 (human); compound 1.0 µM): 113%
- residual activity (DYRK2 (human); compound 5.0 µM): 101%
- residual activity (DYRK3 (human); compound 1.0 µM): 124%
- residual activity (DYRK3 (human); compound 5.0 µM): 106%
- residual activity (EPHA2 (human); compound 1.0 µM): 104%
- residual activity (EPHA2 (human); compound 5.0 µM): 99%
- residual activity (EPHB1 (human); compound 1.0 µM): 103%
- residual activity (EPHB1 (human); compound 5.0 µM): 115%
- residual activity (EPHB2 (human); compound 1.0 µM): 72%
- residual activity (EPHB2 (human); compound 5.0 µM): 78%
- residual activity (EPHB4 (human); compound 1.0 µM): 124%
- residual activity (FLT1 (human); compound 1.0 µM): 109%
- residual activity (FLT1 (human); compound 5.0 µM): 98%
- residual activity (GCK (human); compound 1.0 µM): 116%
- residual activity (GCK (human); compound 5.0 µM): 98%
- residual activity (HIPK2 (human); compound 1.0 µM): 124%
- residual activity (HIPK2 (human); compound 5.0 µM): 113%
- residual activity (IKBKE (human); compound 1.0 µM): 112%
- residual activity (IKBKE (human); compound 5.0 µM): 108%
- residual activity (IRAK4 (human); compound 1.0 µM): 106%
- residual activity (IRAK4 (human); compound 5.0 µM): 97%
- residual activity (MAP3K7 TAB1 (human); compound 1.0 µM): 109%
- residual activity (MAPK12 (human); compound 1.0 µM): 108%
- residual activity (MAPK12 (human); compound 5.0 µM): 115%
- residual activity (MAPK14 (human); compound 1.0 µM): 105%
- residual activity (MAPK14 (human); compound 5.0 µM): 111%
- residual activity (MAPKAPK2 (human); compound 1.0 µM): 72%
- residual activity (MAPKAPK2 (human); compound 5.0 µM): 64%
- residual activity (MARK1 (human); compound 1.0 µM): 100%
- residual activity (MARK1 (human); compound 5.0 µM): 94%
- residual activity (MARK2 (human); compound 1.0 µM): 112%
- residual activity (MARK2 (human); compound 5.0 µM): 102%
- residual activity (MELK (human); compound 1.0 µM): 138%
- residual activity (MELK (human); compound 5.0 µM): 100%
- residual activity (MYLK (human); compound 1.0 µM): 123%
- residual activity (MYLK (human); compound 5.0 µM): 113%
- residual activity (NEK2 (human); compound 1.0 µM): 110%
- residual activity (PIM1 (human); compound 1.0 µM): 97%
- residual activity (PIM1 (human); compound 5.0 µM): 108%
- residual activity (PIM3 (human); compound 1.0 µM): 119%
- residual activity (PIM3 (human); compound 5.0 µM): 121%
- residual activity (PKN2 (human); compound 1.0 µM): 106%
- residual activity (PKN2 (human); compound 5.0 µM): 102%
- residual activity (PRKCA (human); compound 1.0 µM): 108%
- residual activity (PRKCA (human); compound 5.0 µM): 108%
- residual activity (ROCK2 (rat); compound 1.0 µM): 123%
- residual activity (ROCK2 (rat); compound 5.0 µM): 113%
- residual activity (RPS6KA1 KD1 KD2 (human); compound 1.0 µM): 110%
- residual activity (RPS6KA1 KD1 KD2 (human); compound 5.0 µM): 112%
- residual activity ([1]; compound 1.0 µM): 103%
- residual activity ([1]; compound 5.0 µM): 106%
- residual activity ([2]; compound 5.0 µM): 115%
- residual activity (STK3 (human); compound 1.0 µM): 118%
- residual activity (STK3 (human); compound 5.0 µM): 125%
- residual activity (TAOK1 (human); compound 5.0 µM): 103%
- residual activity (TTK (human); compound 1.0 µM): 109%
- residual activity (TTK (human); compound 5.0 µM): 106%
Structure (SMILES): C=C1C(=O)OC2C1CC/C(C)=C/CCC1(C)OC21 (stereo not given)
